Source: publication PMC10709440, “High-throughput ligand profile characterization in novel cell lines expressing seven heterologous insect olfactory receptors for the detection of volatile plant biomarkers” (Scientific Reports, 2023)
Where two headings read alike, the source gives them in different places.

Tests used:
[1] = biological target: T1, Drosophila OR49b (Drosophila melanogaster, UniProt Q9V6H2); assay: cell-based; conditions: for Average response: OR49b cell line, mean of biological replicates; for activation at 1 µM / activation at 10 µM / activation at 100 µM: HEK293
T1 construct: expressed in transfected cells
T1 sequence (Q9V6H2 1-375): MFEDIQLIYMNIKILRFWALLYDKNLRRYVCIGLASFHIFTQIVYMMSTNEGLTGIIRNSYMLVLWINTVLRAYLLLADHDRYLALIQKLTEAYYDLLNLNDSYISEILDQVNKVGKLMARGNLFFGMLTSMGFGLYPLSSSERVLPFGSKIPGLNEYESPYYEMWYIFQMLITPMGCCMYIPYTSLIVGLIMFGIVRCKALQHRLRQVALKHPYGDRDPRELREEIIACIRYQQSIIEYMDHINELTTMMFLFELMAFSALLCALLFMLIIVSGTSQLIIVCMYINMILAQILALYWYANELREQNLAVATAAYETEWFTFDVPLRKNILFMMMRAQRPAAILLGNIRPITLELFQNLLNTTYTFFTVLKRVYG
T1 sequence (Q9VNB5 1-486 partner): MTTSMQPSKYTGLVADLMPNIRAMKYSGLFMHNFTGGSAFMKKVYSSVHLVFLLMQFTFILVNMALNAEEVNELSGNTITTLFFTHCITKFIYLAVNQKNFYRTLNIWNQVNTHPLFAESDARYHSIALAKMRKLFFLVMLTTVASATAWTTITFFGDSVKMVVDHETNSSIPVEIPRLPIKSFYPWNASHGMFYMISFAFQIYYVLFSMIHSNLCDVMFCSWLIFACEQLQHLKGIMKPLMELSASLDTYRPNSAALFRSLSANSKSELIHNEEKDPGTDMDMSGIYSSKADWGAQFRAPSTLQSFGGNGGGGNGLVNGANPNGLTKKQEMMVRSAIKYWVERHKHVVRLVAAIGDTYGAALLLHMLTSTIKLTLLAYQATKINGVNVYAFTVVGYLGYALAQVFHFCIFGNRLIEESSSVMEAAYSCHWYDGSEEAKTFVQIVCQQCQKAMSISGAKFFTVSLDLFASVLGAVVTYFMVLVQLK
Description: (§1) These VUAA1 normalized ∆F values were used to compare the different receptors and ligands.
(§2) The concentration-dependent effect of the reference ligands on their cognate cell lines was examined in more detail. Twelve different ligand concentrations were measured on each cell line in an overall 0.01 μM to 100 μM concentration range with 5 repetitions with three technical replicates each time.
(§3) Twelve thousand to 18,000 cells were plated into each well of a black wall, transparent bottom 384-well microplate (Greiner) 48 h or 72 h before the measurements and were simultaneously treated with 1 μg/mL doxycycline. […] The plate has 24 columns, thus we could record responses in up to eight different cell lines in each plate. On the day of the experiment, the growth medium was replaced with 20 µL assay buffer/well (140 mM NaCl, 5 mM KCl, 2 mM CaCl2, 1 mM MgCl2, 5 mM HEPES-Na, 20 mM glucose, pH 7.3, 340 mOsm). […] Baseline fluorescence (F0) was recorded for 5 s, after which 7 µL VOC buffer (140 mM NaCl, 5 mM KCl, 2 mM CaCl2, 1 mM MgCl2, 5 mM HEPES-Na, 31 mM glucose, 0.1% DMSO, pH 7.3, 340 mOsm) was injected into each well in one row and the fluorescence response was recorded for an additional 30 s, at a rate of one read/sec. VOC solutions (VOC buffer with 4× concentration of the final measured VOC concentration, 9 µL/well was injected) were measured on the same wells in a second round with the same protocol. Each individual concentration of a specific VOC sample was recorded in three wells for the same cell line on the same microplate. The raw data were exported in xls file format, F0 and FMAX values, and the fluorescence intensity changes (∆F) were calculated in Excel (Microsoft) (Supplementary file Data summary.xlsx) using the following equation: ΔF=FMAX-F0/F0 (see also Fig. 1C). On each plate, we recorded the response of each cell line to 50 µM VUAA1. The average of these ∆F values of each cell line were used to calculate the VUAA1-normalized values for the rest of the plate, by dividing VOC response ∆F values by the average VUAA1 response ∆F value of the corresponding OR cell line. Each VOC-OR combination was measured three times as technical replicates. […] The average of these replicates were used as one ∆F and VUAA1-normalized ∆F in the following analysis.
(§4) In the next rows we tested the reference VOCs (or other VOCs known to activate the corresponding cell lines), in order to test if all cell lines are responsive. The remaining rows were used to test VOCs with unknown effect.
(§5) The recorded FMAX, F0, ∆F, VUAA1-normalized ∆F values, as well as the OR name, the name of the tested sample, and the final concentration for each well were copied into supplementary file Data summary.xlsx, that was used to summarize all the plates recorded. Here, the averages of the measurements were calculated for each receptor-VOC-concentration combination.

[2] = biological target: T2, Drosophila OR98a (Drosophila melanogaster, UniProt Q9VAZ3); assay: Calcium ion fluorescence (GCaMP6) assay, OR98a stable HEK293 cell line; assay type: cell-based; conditions: for Average response: OR98a cell line, average of biological replicates, fraction of VUAA1 response; for DF norm AVERAGE OR98a: normalized fluorescence change, values below 0.05 threshold given as 0
T2 construct: expressed in transfected cells
T2 sequence (Q9VAZ3 1-397): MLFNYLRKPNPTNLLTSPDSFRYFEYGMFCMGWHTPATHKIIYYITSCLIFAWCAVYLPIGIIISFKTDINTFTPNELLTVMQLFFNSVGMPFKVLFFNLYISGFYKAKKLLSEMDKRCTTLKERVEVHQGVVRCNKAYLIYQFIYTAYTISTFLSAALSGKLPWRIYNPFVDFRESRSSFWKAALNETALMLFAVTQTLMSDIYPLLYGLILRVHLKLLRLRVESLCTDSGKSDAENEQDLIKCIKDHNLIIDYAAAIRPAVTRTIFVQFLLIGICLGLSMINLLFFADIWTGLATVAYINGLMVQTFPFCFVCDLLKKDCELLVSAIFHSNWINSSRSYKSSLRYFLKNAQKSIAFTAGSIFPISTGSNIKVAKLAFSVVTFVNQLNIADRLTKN
T2 sequence (Q9VNB5 1-486 partner): T1 sequence (Q9VNB5 1-486 partner)
Description: as §1, §2, §3, §4, §5

[3] = VOC concentration 1 μM, read-out: OR49b response (VUAA1-normalized response)
[4] = VOC concentration 10 μM, read-out: OR49b response (VUAA1-normalized response)
[5] = VOC concentration 100 μM, read-out: OR49b response (VUAA1-normalized response)
[6] = HEK293, read-out: Average response
[7] = HEK293, read-out: OR98a response (VUAA1-normalized response)
[8] = HEK293, read-out: OR98a Average response (VUAA1-normalized)

| SMILES | DF norm AVERAGE OR49b [1] | Average response ([1]; odorant cc. 1 µM) | Average response ([1]; odorant cc. 10 µM) | Average response ([1]; odorant cc. 100 µM) | DF norm AVERAGE OR98a ([2]; concentration 1) | DF norm AVERAGE OR98a ([2]; concentration 10) | DF norm AVERAGE OR98a ([2]; concentration 100) | activation at 1 µM [1, 3] [%] | activation at 10 µM [1, 4] [%] | activation at 100 µM [1, 5] [%] | activation at 1 µM [2, 6] [%] | activation at 10 µM [2, 6] [%] | activation at 100 µM [2, 6] [%] | activation at 1 µM [2, 7] [%] | activation at 10 µM [2, 7] [%] | activation at 100 µM [2, 7] [%] | further results |
| --- | --- | --- | --- | --- | --- | --- | --- | --- | --- | --- | --- | --- | --- | --- | --- | --- | --- |
| C=C(C)C1CCC2(C)OC2C1 (single isomer, unassigned; (+)) [(+)-limonene oxide] | 0 | 0.00 | 0.00 | 0.00 | 0 | 0 | 0 | – | – | – | – | – | – | – | – | – | OR49b response (VUAA1-normalized response) ([1]; VOC concentration 1 μM): 0.00; OR49b response (VUAA1-normalized response) ([1]; VOC concentration 10 μM): 0.00; OR49b response (VUAA1-normalized response) ([1]; VOC concentration 100 μM): 0.00; OR98a response (VUAA1-normalized response) ([2]; VOC concentration 1 μM): 0.00; OR98a response (VUAA1-normalized response) ([2]; VOC concentration 10 μM): 0.00; OR98a response (VUAA1-normalized response) ([2]; VOC concentration 100 μM): 0.00; Average response ([2]; cc. 1 µM): 0.00; Average response ([2]; cc. 10 µM): 0.00; Average response ([2]; cc. 100 µM): 0.00 |
| Cc1ccc(C)c(C)c1 [1,2,4-trimethylbenzene] | – | 0.00 | 0.00 | 0.20 | 0 | 0.1254 | 0.05229 | 0 | 0 | 20 | 0 | 13 | 5 | 0 | 13 | 5 | activation at 1 µM ([1]; 1 μM VOC, 50 μM VUAA1 = 1, read-out: OR49b Average response (VUAA1-normalized)): 0%; activation at 10 µM ([1]; 10 μM VOC, 50 μM VUAA1 = 1, read-out: OR49b Average response (VUAA1-normalized)): 0%; activation at 100 µM ([1]; 100 μM VOC, 50 μM VUAA1 = 1, read-out: OR49b Average response (VUAA1-normalized)): 20% |
| COc1cccc(OC)c1 [1,3-dimethoxy benzene] | 0 | 0.00 | 0.00 | 0.00 | 0 | 0 | 0 | 0 | 0 | 0 | 0 | 1.66 | 3.31 | 0 | 0 | 0 | – |
| CCCCCCCO [1-heptanol] | – | 0.00 | 0.00 | 0.06 | 0 | 0.05219 | 0 | 0 | 0 | 6 | 4 | 5 | 0 | 0 | 5 | 0 | – |
| C=CC(O)CCCCC (stereo not shown) [1-octen-3-ol] | 0 | 0.00 | 0.0174 | 0.0145 | 0 | 0 | 0.2102 | 0 | 0 | 0 | 0 | 1.13 | 21 | 0 | 0 | 21 | activation at 1 µM [2, 8]: 0%; activation at 10 µM [2, 8]: 1%; activation at 100 µM [2, 8]: 21% |
| CCCCCO [1-pentanol] | 0 | 0.00 | 0.00 | 0.0167 | 0 | 0 | 0 | 0 | 0 | 0 | 0 | 2.81 | 0 | 0 | 0 | 0 | – |
| CCCCCC(C)O (stereo not shown) [2-heptanol] | – | 0.00 | 0.00 | 0.0651 | 0 | 0 | 0.1574 | 0 | 0 | 6.51 | 3.25 | 3.67 | 16 | 0 | 0 | 16 | activation at 1 µM [2, 8]: 3%; activation at 10 µM [2, 8]: 4%; activation at 100 µM [2, 8]: 16% |
| CCCCOC(=O)CC [butyl propanoate] | – | 0.00 | 0.00 | 0.00 | – | – | – | 0 | 0 | 0 | – | – | – | – | – | – | DF norm AVERAGE OR49b ([1]; ligand concentration 1 (unit not given), threshold 0.05, below shown as 0): 0; DF norm AVERAGE OR49b ([1]; ligand concentration 10 (unit not given), threshold 0.05, below shown as 0): 0; DF norm AVERAGE OR49b ([1]; ligand concentration 100 (unit not given), threshold 0.05, below shown as 0): 0 |
